Reference: paper PMC5041959, “A high-content EMT screen identifies multiple receptor tyrosine kinase inhibitors with activity on TGFβ receptor” (Oncotarget, 2016)
Where two headings read alike, the source gives them in different places.

Columns and labels:
Py2T cells = test: High-content microscopy EMT assay in TGFβ-treated Py2T breast cancer cells; format: cell-based, murine; conditions: for Emax (maximal effect on cell count): compared to reference 10 μM SB-431542 = 100%
NMuMG cells = test: High-content microscopy EMT screen in TGFβ-treated NMuMG cells (FA, SF, FN, cell count); format: cell-based, murine; conditions: for Emax: read-out: Emax (maximal effect on cell count); for Emax (maximal effect on cell count): compared to reference 10 μM SB-431542 = 100%
[1] = test system: SMAD3 phosphorylation (TGFBR activity); test: Quantification of SMAD3 phosphorylation in TGFβ-treated NMuMG cells (immunoblot, LI-COR); format: cell-based, murine; conditions: one day TGFβ plus inhibitor
Method: NMuMG cells plated the day before were treated for one day with TGFβ and DMSO or an inhibitor as described in the figure legends. Cells were washed with PBS and lyzed in RIPA buffer (150 mM NaCl, 2 mM MgCl, 2 mM CaCl2, 0.5% Na-deoxycholate, 10% glycerol, 1% NP-40, 0.1% SDS, 50 mM Tris pH8 supplementary with 1 mM DTT, 10 mM NaF, 1 mM sodium orthovanadate and protease inhibitor cocktail (Roche)). The proteins were resolved using SDS-PAGE and transferred to PVDF membrane. For quantitative analysis of SMAD phosphorylation, the membrane was probed with p-SMAD2/3 and GAPDH specific primary antibodies followed by fluorescent secondary antibodies (LI-COR Biosciences). The signal was captured and quantified with the Odyssey CLx Imaging system and ImageJ software form 3 independent experiments.

TGFBR1 = target: T1, TGFBR1 (Homo sapiens, UniProt P36897); test: Biochemical kinase profiling (33PanQinase radiometric assay)
T1 sequence (P36897 34-503): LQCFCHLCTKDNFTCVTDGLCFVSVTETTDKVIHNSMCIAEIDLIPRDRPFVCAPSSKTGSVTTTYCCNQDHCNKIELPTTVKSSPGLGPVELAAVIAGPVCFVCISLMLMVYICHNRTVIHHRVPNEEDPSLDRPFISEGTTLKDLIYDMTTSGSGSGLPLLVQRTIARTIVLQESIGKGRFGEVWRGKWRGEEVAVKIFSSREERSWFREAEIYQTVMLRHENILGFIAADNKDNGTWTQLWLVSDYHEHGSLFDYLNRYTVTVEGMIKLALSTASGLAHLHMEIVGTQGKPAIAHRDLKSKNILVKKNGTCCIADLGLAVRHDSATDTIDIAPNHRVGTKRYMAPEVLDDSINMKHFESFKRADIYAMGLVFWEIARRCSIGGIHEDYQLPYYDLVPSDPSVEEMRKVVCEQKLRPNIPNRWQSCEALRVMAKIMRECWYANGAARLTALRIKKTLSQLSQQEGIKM

SRC = SRC (Homo sapiens, UniProt P12931); test: as above
ROCK2 = ROCK2 (Homo sapiens, UniProt O75116); test: as above
ROCK2, sequence (O75116 whole entry): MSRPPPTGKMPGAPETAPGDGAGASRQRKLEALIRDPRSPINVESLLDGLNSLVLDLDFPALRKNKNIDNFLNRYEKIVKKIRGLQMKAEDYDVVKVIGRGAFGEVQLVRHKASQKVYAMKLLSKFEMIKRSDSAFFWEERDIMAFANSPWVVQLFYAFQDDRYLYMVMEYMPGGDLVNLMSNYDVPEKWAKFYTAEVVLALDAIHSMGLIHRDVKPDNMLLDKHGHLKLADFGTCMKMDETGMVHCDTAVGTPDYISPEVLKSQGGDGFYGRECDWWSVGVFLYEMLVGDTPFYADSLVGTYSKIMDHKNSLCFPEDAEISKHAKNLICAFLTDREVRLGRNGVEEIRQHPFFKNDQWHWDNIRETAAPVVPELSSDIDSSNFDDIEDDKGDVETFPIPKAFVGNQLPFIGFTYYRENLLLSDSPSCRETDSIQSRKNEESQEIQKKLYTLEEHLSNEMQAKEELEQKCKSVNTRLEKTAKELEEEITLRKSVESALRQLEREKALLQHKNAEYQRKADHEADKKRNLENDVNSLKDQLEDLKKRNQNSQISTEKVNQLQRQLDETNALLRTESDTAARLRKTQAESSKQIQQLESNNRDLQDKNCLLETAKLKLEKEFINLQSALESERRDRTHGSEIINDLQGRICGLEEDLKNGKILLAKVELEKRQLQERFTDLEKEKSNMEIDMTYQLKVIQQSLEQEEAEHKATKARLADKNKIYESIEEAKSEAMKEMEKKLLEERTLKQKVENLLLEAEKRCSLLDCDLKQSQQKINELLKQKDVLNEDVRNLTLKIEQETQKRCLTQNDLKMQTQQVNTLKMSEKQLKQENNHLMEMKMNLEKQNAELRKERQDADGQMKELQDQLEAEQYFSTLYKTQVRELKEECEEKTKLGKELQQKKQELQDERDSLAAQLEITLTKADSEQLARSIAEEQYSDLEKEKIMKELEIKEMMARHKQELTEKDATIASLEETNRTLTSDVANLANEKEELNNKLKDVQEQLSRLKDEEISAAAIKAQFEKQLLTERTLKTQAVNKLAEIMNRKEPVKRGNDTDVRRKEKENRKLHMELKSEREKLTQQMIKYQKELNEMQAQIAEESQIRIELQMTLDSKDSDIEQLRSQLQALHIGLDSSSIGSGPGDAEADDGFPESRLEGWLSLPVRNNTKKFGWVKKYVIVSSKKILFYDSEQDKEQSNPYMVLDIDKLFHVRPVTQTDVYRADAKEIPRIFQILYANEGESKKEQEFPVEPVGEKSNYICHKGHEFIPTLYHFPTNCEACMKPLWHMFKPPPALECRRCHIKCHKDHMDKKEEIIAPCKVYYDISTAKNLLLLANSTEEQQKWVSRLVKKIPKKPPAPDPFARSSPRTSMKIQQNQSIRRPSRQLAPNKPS

PDGFRB = PDGFRB (Homo sapiens, UniProt P09619); test: as above
PDGFRB, sequence (P09619 33-1106): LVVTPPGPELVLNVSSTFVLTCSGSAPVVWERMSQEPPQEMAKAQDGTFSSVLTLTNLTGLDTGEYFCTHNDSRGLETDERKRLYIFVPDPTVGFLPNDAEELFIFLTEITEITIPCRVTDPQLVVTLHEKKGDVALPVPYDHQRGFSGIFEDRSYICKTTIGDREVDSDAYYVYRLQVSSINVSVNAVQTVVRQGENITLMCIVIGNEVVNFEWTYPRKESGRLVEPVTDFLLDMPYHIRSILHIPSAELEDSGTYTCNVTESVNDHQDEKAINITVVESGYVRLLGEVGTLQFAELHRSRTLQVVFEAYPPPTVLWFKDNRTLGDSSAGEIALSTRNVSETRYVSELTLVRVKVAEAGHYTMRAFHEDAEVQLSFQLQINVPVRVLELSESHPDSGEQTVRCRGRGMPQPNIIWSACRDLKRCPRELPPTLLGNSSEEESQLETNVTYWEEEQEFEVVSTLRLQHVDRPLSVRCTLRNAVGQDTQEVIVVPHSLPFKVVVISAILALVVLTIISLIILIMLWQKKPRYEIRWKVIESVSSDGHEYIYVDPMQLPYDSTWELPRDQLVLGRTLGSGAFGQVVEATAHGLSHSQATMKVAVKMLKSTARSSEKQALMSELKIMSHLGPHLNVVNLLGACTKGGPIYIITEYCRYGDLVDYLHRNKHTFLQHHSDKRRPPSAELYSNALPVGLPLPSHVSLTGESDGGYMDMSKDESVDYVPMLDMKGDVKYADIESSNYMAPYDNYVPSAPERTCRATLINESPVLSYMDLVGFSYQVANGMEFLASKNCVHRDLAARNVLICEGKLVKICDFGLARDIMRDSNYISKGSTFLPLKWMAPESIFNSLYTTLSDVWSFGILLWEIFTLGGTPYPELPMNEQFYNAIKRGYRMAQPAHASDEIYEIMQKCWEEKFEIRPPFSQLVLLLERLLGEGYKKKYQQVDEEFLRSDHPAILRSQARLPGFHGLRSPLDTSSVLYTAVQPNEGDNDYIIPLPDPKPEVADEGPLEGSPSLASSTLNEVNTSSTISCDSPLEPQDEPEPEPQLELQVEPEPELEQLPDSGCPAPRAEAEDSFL

PDGFRA = PDGFRA (Homo sapiens, UniProt P16234); test: as above
PDGFRA, sequence (P16234 24-1089): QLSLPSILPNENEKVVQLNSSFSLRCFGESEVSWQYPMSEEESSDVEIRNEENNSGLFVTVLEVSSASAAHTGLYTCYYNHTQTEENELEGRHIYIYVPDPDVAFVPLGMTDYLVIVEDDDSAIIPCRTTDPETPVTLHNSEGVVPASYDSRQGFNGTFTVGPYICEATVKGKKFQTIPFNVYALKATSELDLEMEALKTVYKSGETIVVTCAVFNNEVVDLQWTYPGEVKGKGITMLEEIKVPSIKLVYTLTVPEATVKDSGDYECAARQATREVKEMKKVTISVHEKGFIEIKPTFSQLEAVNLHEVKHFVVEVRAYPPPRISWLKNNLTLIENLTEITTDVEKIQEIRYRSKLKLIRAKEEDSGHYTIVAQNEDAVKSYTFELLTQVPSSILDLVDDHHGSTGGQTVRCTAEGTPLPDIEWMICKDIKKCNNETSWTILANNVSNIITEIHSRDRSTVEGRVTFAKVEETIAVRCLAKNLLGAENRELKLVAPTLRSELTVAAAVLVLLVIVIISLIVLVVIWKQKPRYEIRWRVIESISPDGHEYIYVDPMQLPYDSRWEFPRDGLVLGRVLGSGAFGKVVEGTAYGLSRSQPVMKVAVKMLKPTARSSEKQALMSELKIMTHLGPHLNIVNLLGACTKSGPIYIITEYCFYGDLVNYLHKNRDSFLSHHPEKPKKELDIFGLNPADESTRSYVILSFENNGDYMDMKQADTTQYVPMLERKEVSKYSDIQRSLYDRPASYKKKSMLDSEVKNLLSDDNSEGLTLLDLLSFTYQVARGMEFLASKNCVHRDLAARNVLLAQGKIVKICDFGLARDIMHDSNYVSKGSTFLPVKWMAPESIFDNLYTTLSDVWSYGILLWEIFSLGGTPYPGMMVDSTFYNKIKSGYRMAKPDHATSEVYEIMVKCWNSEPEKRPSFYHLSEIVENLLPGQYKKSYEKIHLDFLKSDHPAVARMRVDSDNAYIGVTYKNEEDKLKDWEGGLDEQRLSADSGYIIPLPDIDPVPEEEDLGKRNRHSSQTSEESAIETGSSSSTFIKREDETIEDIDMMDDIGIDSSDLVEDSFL

FGFR2 = FGFR2 (Homo sapiens, UniProt P21802); test: as above
FGFR4 = FGFR4 (Homo sapiens, UniProt P22455); test: as above
TGFBR2 = TGFBR2 (Homo sapiens, UniProt P37173); test: as above
FGFR3 = FGFR3 (Homo sapiens, UniProt P22607); test: as above
ROCK1 = ROCK1 (Homo sapiens, UniProt Q13464); test: as above
ROCK1, sequence (Q13464 whole entry): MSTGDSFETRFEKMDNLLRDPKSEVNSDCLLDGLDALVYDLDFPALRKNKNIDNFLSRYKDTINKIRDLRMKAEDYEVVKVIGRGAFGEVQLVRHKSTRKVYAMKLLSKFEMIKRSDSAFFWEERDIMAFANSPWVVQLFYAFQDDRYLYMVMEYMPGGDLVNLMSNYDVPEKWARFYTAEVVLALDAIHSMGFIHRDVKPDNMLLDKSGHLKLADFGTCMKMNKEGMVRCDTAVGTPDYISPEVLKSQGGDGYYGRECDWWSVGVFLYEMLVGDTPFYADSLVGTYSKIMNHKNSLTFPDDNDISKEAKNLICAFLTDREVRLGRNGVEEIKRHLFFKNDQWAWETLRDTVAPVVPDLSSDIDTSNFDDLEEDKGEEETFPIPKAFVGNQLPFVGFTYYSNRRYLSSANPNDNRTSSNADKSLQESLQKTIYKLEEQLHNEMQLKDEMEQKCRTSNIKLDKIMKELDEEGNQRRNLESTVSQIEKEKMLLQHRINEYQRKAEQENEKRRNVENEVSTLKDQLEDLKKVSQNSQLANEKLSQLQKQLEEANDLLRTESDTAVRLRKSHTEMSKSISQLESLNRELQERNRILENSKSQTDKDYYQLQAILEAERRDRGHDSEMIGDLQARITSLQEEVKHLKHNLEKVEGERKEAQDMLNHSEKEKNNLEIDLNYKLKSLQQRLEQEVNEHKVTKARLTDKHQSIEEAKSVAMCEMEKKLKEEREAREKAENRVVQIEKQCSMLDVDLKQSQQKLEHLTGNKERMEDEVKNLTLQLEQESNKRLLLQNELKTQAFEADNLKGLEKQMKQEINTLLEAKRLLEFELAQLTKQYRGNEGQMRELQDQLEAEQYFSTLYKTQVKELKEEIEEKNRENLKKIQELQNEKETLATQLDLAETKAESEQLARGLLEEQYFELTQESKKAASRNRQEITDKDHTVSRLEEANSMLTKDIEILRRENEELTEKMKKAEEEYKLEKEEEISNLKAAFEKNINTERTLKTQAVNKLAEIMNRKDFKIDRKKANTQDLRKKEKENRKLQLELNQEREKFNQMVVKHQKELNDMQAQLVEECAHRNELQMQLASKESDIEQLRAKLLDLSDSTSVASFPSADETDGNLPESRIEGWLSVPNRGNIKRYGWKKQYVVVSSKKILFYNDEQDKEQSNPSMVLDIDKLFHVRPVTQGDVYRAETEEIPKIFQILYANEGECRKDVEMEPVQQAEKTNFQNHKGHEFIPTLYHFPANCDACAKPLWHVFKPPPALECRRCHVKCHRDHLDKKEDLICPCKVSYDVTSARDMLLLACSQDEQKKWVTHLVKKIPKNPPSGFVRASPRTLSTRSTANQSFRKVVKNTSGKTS

ROCK = ROCK cellular assay (MLC Thr18/Ser19 phosphorylation ELISA in A7r5 cells); format: cell-based, rat; conditions: Rattus norvegicus, 1.5 h, 90 min compound
FGFR1 = FGFR1 (Homo sapiens, UniProt P11362); test: Biochemical kinase profiling (33PanQinase radiometric assay)
EGFR = EGFR (Homo sapiens, UniProt P00533); test: as above
[2] = Mus musculus, Py2T, cell count decreased by 50% compared to DMSO control, read-out: Tox IC50
[3] = Py2T, TGFβ plus compound, 4 days
[4] = Mus musculus, 96 h, NMuMG, TGFβ1 2 ng/ml plus compound, 4 days, parameter decreased by 50%, read-out: FN IC50 (fibronectin patch formation)
[5] = Mus musculus, 96 h, NMuMG, TGFβ1 2 ng/ml plus compound, 4 days, parameter decreased by 50%, read-out: SF IC50 (stress fibers)
[6] = Mus musculus, NMuMG, cell count decreased by 50% compared to DMSO control, read-out: Tox IC50
[7] = Mus musculus, read-out: CCI IC50 (cell count increase)

O=c1[nH]c(=O)n([C@H]2C[C@H](O)[C@@H](CO)O2)cc1I [Idoxuridine]
IC50 (Py2T cells; [2]): 6350 nM | FA IC50 (focal adhesions) (Py2T cells; [3]): n.m. | FN IC50 (fibronectin patches) (Py2T cells; [3]): n.m. | SF IC50 (stress fibers) (Py2T cells; [3]): n.m. | Emax (maximal effect on cell count) (Py2T cells; Py2T): n.m. | IC50 (NMuMG cells; [4]): 948 nM | IC50 (NMuMG cells; [5]): 1170 nM | IC50 (NMuMG cells; [6]): > 25000 nM | IC50 (NMuMG cells; [7]): 291 nM | Emax (NMuMG cells; Mus musculus): 12.9% | SMAD3 phosphorylation (p-SMAD3/GAPDH) [1]: unchanged

CCN(CC)CCCCNc1ncc2cc(-c3c(Cl)cccc3Cl)c(NC(=O)NC(C)(C)C)nc2n1 [PD-161570]
IC50 (TGFBR1; read-out: TGFBR1 IC50, ATP at apparent Km): 44.9 nM | IC50 (SRC; read-out: SRC IC50, ATP at apparent Km): 5.2 nM | IC50 (ROCK2; read-out: ROCK2 IC50, ATP at apparent Km): > 10000 nM | FA IC50 (focal adhesions) (Py2T cells; [3]): n.m. | FN IC50 (fibronectin patches) (Py2T cells; [3]): n.m. | SF IC50 (stress fibers) (Py2T cells; [3]): n.m. | IC50 (Py2T cells; Py2T, cell count decreased by 50% compared to DMSO control, read-out: Tox IC50): 479 nM | IC50 (Py2T cells; Py2T, compared to 10 μM SB-431542, read-out: CCI IC50 (cell count increase)): 232 nM | Emax (maximal effect on cell count) (Py2T cells; Py2T): 43% | IC50 (PDGFRB; read-out: PDGFRB IC50, ATP at apparent Km): 95.8 nM | IC50 (PDGFRA; read-out: PDGFRA IC50, ATP at apparent Km): 2370 nM | IC50 (FGFR2; read-out: FGFR2 IC50, ATP at apparent Km): 6.5 nM | IC50 (NMuMG cells; NMuMG, TGFβ1 2 ng/ml plus compound, 4 days, parameter decreased by 50%, read-out: FA IC50 (focal adhesion formation)): 337 nM | IC50 (NMuMG cells; NMuMG, TGFβ1 2 ng/ml plus compound, 4 days, parameter decreased by 50%, read-out: FN IC50 (fibronectin patch formation)): 1040 nM | IC50 (NMuMG cells; NMuMG, TGFβ1 2 ng/ml plus compound, 4 days, parameter decreased by 50%, read-out: SF IC50 (stress fibers)): 702 nM | IC50 (NMuMG cells; NMuMG, cell count decreased by 50% compared to DMSO control, read-out: Tox IC50): 4970 nM | IC50 (NMuMG cells; NMuMG, cell count increased by 50% compared to 100% with 10 μM SB-431542, read-out: CCI IC50 (cell count increase)): 525 nM | Emax (maximal effect on cell count) (NMuMG cells; NMuMG): 50.8% | IC50 (NMuMG cells; NMuMG, mean of IC50 values obtained for FA, SF, FN, read-out: EMT (FA/SF/FN) combined IC50): 694 nM | IC50 (FGFR4; read-out: FGFR4 IC50, ATP at apparent Km): 667 nM | IC50 (TGFBR2; read-out: TGFBR2 IC50, ATP at apparent Km): 1280 nM | IC50 (FGFR3; read-out: FGFR3 IC50, ATP at apparent Km): 27.2 nM | IC50 (ROCK1; read-out: ROCK1 IC50, ATP at apparent Km): > 10000 nM

COCCOc1ccc2c(c1)ncn2-c1ccc2cccc(N3CCC(N)CC3)c2n1 [CP673451]
IC50 (TGFBR1): > 10000 nM | IC50 (SRC): 1070 nM | IC50 (ROCK2): 1000 nM | IC50 (PDGFRB): 1.9 nM | IC50 (PDGFRA): 618 nM | IC50 (ROCK): 1500 nM | IC50 (FGFR2): 1010 nM | IC50 (NMuMG cells; [4]): 2050 nM | IC50 (NMuMG cells; [5]): 2560 nM | IC50 (NMuMG cells; [6]): 3590 nM | FA IC50 (focal adhesion formation) (NMuMG cells; NMuMG, TGFβ1 2 ng/ml plus compound, 4 days, parameter decreased by 50%): n.m. | Emax (maximal effect on cell count) (NMuMG cells; NMuMG): n.m. | IC50 (FGFR1): 5630 nM | IC50 (FGFR4): > 10000 nM | IC50 (TGFBR2): > 10000 nM | IC50 (FGFR3): 9090 nM | IC50 (ROCK1): 3370 nM | IC50 (EGFR): 2120 nM

CC1=C(C(=O)Nc2cc3cn[nH]c3cc2F)C(c2ccc(C(F)(F)F)cc2)CC(=O)N1 (centres unmarked) [GSK429286A]
IC50 (ROCK2): 55.3 nM | IC50 (Py2T cells; Mus musculus, 96 h, Py2T, TGFβ plus compound, 4 days, read-out: FA IC50 (focal adhesions)): 245 nM | IC50 (Py2T cells; Mus musculus, 96 h, Py2T, TGFβ plus compound, 4 days, read-out: FN IC50 (fibronectin patches)): 192 nM | IC50 (Py2T cells; Mus musculus, 96 h, Py2T, TGFβ plus compound, 4 days, read-out: SF IC50 (stress fibers)): 105 nM | IC50 (Py2T cells; [2]): 20300 nM | IC50 (Py2T cells; [7]): 51.8 nM | Emax (Py2T cells; Mus musculus, read-out: Emax (maximal effect on cell count)): 47.5% | IC50 (ROCK): 29 nM | IC50 (NMuMG cells; Mus musculus, 96 h, NMuMG, TGFβ1 2 ng/ml plus compound, 4 days, parameter decreased by 50%, read-out: FA IC50 (focal adhesion formation)): 127 nM | IC50 (NMuMG cells; [4]): 264 nM | IC50 (NMuMG cells; [5]): 82 nM | IC50 (NMuMG cells; [6]): > 25000 nM | IC50 (NMuMG cells; Mus musculus, NMuMG, mean of IC50 values obtained for FA, SF, FN, read-out: EMT (FA/SF/FN) combined IC50): 158 nM | IC50 (NMuMG cells; [7]): 142 nM | Emax (NMuMG cells; Mus musculus): 33.2% | IC50 (ROCK1): 46.7 nM
